Measurements as given in article PMC9143821, “Design and Synthesis of a Novel 4-aryl-N-(2-alkoxythieno [2,3-b]pyrazine-3-yl)-4-arylpiperazine-1-carboxamide DGG200064 Showed Therapeutic Effect on Colon Cancer through G2/M Arrest” (Pharmaceuticals, 2022).
≈ marks a conversion by molar mass, not a printed value. Where two headings read alike, the source gives them in different places.

Key:
[1] = Maximum tolerated dose evaluation, 2 weeks; format: in vivo; conditions: 150 mg/kg oral administration, 2-week evaluation
pKa determination = format: physicochemical
Excerpt: (§1) Table 4 Physicochemical Properties of the Lead Compounds 7c. | column: 7c

HCT116 and DLD1 cells = assay: Immunoblotting of cell cycle and FBXW7 substrate proteins; format: cell-based, human; conditions: 6 h
Protocol: HCT116 and DLD1 cells were exposed to increasing concentrations of DGG200064 (0, 10, 50, 100 nM) for 6 h. […] Moreover, there were increased levels of c-Jun by DGG200064 (50 nM) treatment in other 6-colon cancer cells (Figure S1, Supplementary Materials). c-Jun is a component of the transcription factor activator protein 1 (AP-1), which is activated by a variety of extracellular stimuli, such as growth factors and UV irradiation. In cancer cells, activation of c-Jun promotes down-stream target gene transcription, and it is involved in cell proliferation, growth, division, and apoptosis. […] To test whether DGG200064 could induce G2/M cell cycle arrest through the increasing of c-Jun level, the two genes were silenced using c-Jun siRNAs and treated with DGG200064 in HCT116 and DLD1 cells (Figure 3c). When c-Jun was silenced, the amount of cyclin B protein treated by DGG200064 decreased. […]
The whole-cell lysate was prepared using Radioimmunoprecipitation assay buffer (RIPA buffer) prepared in 50 mM Tris-HCl, pH 8.0, with 150 mM sodium chloride, 1.0% Igepal CA-630 (NP-40), 0.5% sodium deoxycholate, 0.1% sodium dodecyl sulfate, protease inhibitor cocktail, and phosphatase inhibitor cocktail. […] Membranes were washed five times with TBST, and chemiluminescence was detected using Westsave™ (Abfrontier, Seoul, Korea). […]

HCT15 = assay: SRB assay, colon cancer cell growth inhibition; format: cell-based; conditions: Homo sapiens, HCT-15, 48 h
Protocol: (§2) A series of 4-phenyl-N-(thieno[2,3-b]pyrazin-3-yl)piperazine-1-carboxamides derivatives 7a–7i were tested for the colon cancer cell growth inhibition effect using the SRB assay (Table 2). […] Compounds 7a and 7b, containing chlorine at the C6 position of thieno[2,3-b]pyrazine ring, have weaker anticancer activity than its proton-containing derivatives 7c–7i. On the other hand, 7c has shown higher inhibition activity than 7d with methyl substituents at the C3 and C5 positions of the phenyl ring. […] Substitutions with one fluorine atom in the phenyl ring could not improve the inhibition effect of the compounds 7g–7h.
(§3) The HCT116, HCT8, KM12, HCT15, HT29, COLO-205, SW620 cell line was obtained from the National Cancer Institute (Material Transfer Agreement number: 2702–09). DLD1 cell line was obtained from the Korean cell line bank. Cells were cultured in complete Roswell Park Memorial Institute (RPMI) 1640 medium (Hyclone, South Logan, UT, USA) containing 10% fetal bovine serum (Hyclone, South Logan, UT, USA) in an atmosphere of 5% CO2 and 100% humidity at 37 °C. A small interfering RNA (siRNA) duplex targeting human c-Jun and FBXW7 (Genolution, Seoul, Korea) were introduced into cells using Lipofector-EXT (AptaBio, Yongin, Korea), according to the manufacturer’s instructions. As negative controls, cells were incubated with Lipofector-EXT (AptaBio, Yongin, KOR) and a negative siRNA (Genolution, Seoul, Korea).
(§4) Cells (100 μL containing 5000–10,000 cells/well) were incubated in 96 well microtiter plates. After 24 h, drugs were added (100 μL) to each well and the cultures were incubated for 48 h at 37 °C. The cells were then fixed in TCA (50 μL per well). The plates were incubated for a minimum of 1 h or a maximum of 3 h at 4 °C. The liquid was removed from the plate, which was then rinsed five times with water and allowed to dry at room temperature (rt) for approximately 12–24 h. The fixed cells were stained with 100 μL Sulforhodamine B (SRB) solution for 5 min at rt. After staining, the plate was washed three times with 1% glacial acetic acid and dried at rt for approximately 12–24 h. The SRB was then solubilized in 10 mM Tris buffer, and the absorbance was read at 515 nm. The effect of the drugs was expressed as GI50 (50% growth inhibition).

SW620 = assay: SRB assay, colon cancer cell growth inhibition; format: cell-based; conditions: Homo sapiens, SW-620, 48 h
Protocol: as §2, §3, §4

Colo205 = assay: SRB assay, colon cancer cell growth inhibition; format: cell-based; conditions: Homo sapiens, COLO 205, 48 h
Protocol: as §2, §3, §4

HCT116 = assay: SRB assay, colon cancer cell growth inhibition; format: cell-based; conditions: Homo sapiens, HCT-116; HCT116, SRB, 48 h
Protocol: as §2, §3, §4

KM12 = assay: SRB assay, colon cancer cell growth inhibition; format: cell-based; conditions: Homo sapiens, 48 h
Protocol: as §2, §3, §4

HT29 = assay: SRB assay, colon cancer cell growth inhibition; format: cell-based; conditions: Homo sapiens, HT-29, 48 h
Protocol: as §2, §3, §4

HCT8 = assay: SRB assay, colon cancer cell growth inhibition; format: cell-based; conditions: Homo sapiens, HCT-8, 48 h
Protocol: as §2, §3, §4

Solubility (logS) = format: physicochemical; conditions: for solubility: thermodynamic from solid, read-out: Solubility (logS) Equilibrium (converted)
Excerpt: as §1

Permeability = format: in vitro ADME
Excerpt: as §1

Q: What does the source list for `COc1cc(OC)cc(N2CCN(C(=O)Nc3nc4sccc4nc3OC)CC2)c1` [Compound 7c, 4-(3,5-Dimethoxyphenyl)-N-(2-methoxythieno[2,3-b]pyrazin-3-yl)piperazine-1-carboxamide]?
A: body weight [1]: no loss of body weight; pKa (pKa determination; first of two values): 2.39; pKa (pKa determination; second of two values): 11.6; cyclin E and c-Myc levels (HCT116 and DLD1 cells; HCT116, 0, 10, 50, 100 nM): not affected; cyclin B1, c-Jun and p-c-Jun levels (HCT116 and DLD1 cells; HCT116 and DLD1, 0, 10, 50, 100 nM): dose-dependent increase; GI50 (HCT15): 26 nM; GI50 (SW620): 27 nM; GI50 (Colo205): 24 nM; GI50 (HCT116): 12 nM; GI50 (KM12): 8 nM; GI50 (HT29): 17 nM; GI50 (HCT8): 54 nM; solubility (Solubility (logS); pH 2, aqueous buffer, pH2.0): 2090 µM (≈ 897 µg/mL); solubility kinetic (Solubility (logS); pH 7.4, aqueous buffer, kinetic from dmso stock, pH7.4): 741 µM (≈ 318 µg/mL); solubility (Solubility (logS); pH 7.4, aqueous buffer, pH7.4): 603 µM (≈ 259 µg/mL); solubility (Solubility (logS); pH 9, aqueous buffer, pH9.0): 617 µM (≈ 265 µg/mL); Permeability Class (Permeability): High; Papp (Permeability; PAMPA, read-out: Permeability Pe): 29.5 ×10⁻⁶ cm/s
